Assay results taken from ChEMBL document CHEMBL1134074, “Identification of novel potent hydroxamic acid inhibitors of peptidyl deformylase and the importance of the hydroxamic acid functionality on inhibition” (Bioorg Med Chem Lett, 2001).
Converted amounts (≈) assume the structure as drawn.

Legend:
Peptide deformylase = target: T1, Peptide deformylase (Staphylococcus aureus subsp. aureus Mu50, UniProt P68825); experiment: Inhibition of Peptidyl deformylase (PDF)
T1 sequence (P68825 whole entry): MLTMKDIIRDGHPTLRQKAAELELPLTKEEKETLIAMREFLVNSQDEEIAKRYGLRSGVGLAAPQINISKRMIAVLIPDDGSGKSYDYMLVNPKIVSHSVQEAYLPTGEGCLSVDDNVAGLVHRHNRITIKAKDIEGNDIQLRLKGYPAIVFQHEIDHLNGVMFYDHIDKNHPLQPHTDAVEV

Staphylococcus aureus = experiment: Antibacterial activity against Staphylococcus aureus (SAUR) 9218; type: functional
Streptococcus pneumoniae = experiment: Antibacterial activity against Streptococcus pneumoniae (SPNE) 9912; type: functional
[1] = tested on: Staphylococcus epidermidis; experiment: Antibacterial activity against Staphylococcus epidermidis (SEPI) 12084; type: functional
Escherichia coli = experiment: Antibacterial activity against Escherichia coli (ECOL) 6674; type: functional

Compound	IC50 (Peptide deformylase) [µM]	MIC (Staphylococcus aureus) [µg/mL]	MIC (Streptococcus pneumoniae) [µg/mL]	MIC [1] [µg/mL]	MIC (Escherichia coli) [µg/mL]
O=C(NO)C(NCc1cccc(C(F)(F)F)c1)c1ccc(F)c(F)c1 (stereo unspecified)	0.69	> 128	> 128	> 128	> 128
NNC(=O)N(CCc1cccc(C(F)(F)F)c1)c1cccc2ccccc12	> 100	> 128	> 128	> 128	> 128
COc1cc(Cl)c(CC(=O)NO)cc1OC	–	> 32	> 32	> 32	> 32
O=C(CS)N(CCc1cccc(C(F)(F)F)c1)c1cccc2ccccc12	> 100	> 128	> 128	> 128	> 128
O=C(Cc1ccc(-c2ccccc2)cc1)NO	> 50	> 128	> 128	> 128	> 128
CC(=O)NO [ACETOHYDROXAMIC ACID]	> 100	> 128	> 128	> 128	> 128

Next, values leading:

IC50 (Peptide deformylase) [µM]	MIC (Staphylococcus aureus) [µg/mL]	MIC (Streptococcus pneumoniae) [µg/mL]	MIC [1] [µg/mL]	MIC (Escherichia coli) [µg/mL]	Compound
4.1	64 (≈ 171 µM)	32 (≈ 85.7 µM)	128 (≈ 343 µM)	> 128	NNC(=O)C(NCc1cccc(C(F)(F)F)c1)c1cccc2ccccc12 (stereo unspecified)
0.46	> 128	> 128	> 128	> 128	O=C(NO)C(NCc1cccc(C(F)(F)F)c1)c1ccccc1F (stereo unspecified)
> 100	> 128	128 (≈ 356 µM)	> 128	> 128	O=C(O)C(NCc1cccc(C(F)(F)F)c1)c1cccc2ccccc12 (stereo unspecified)
–	> 128	> 128	> 128	> 128	COc1cccc(C(NCc2cccc(C(F)(F)F)c2)C(=O)NO)c1 (stereo unspecified)
–	32 (≈ 85.5 µM)	32 (≈ 85.5 µM)	32 (≈ 85.5 µM)	> 128	O=C(NO)N(CCc1cccc(C(F)(F)F)c1)c1cccc2ccccc12
–	> 64	> 64	> 64	> 64	O=C(NO)C(NCc1cccc(C(F)(F)F)c1)c1cccc2ccccc12 (stereo unspecified)
> 100	64 (≈ 179 µM)	16 (≈ 44.6 µM)	64 (≈ 179 µM)	> 128	NC(=O)C(NCc1cccc(C(F)(F)F)c1)c1cccc2ccccc12 (stereo unspecified)
> 100	32 (≈ 85.7 µM)	32 (≈ 85.7 µM)	> 128	> 128	O=C(CO)N(CCc1cccc(C(F)(F)F)c1)c1cccc2ccccc12
